One data set has as its system Mtb. The class given is cell-based, Mycobacterium tuberculosis.
Data set [1] concerns M. tuberculosis H37Rv (virulent). The settings on record: 96 h.
In a further data set the test system is M. smegmatis Mc^2 155. The conditions noted are these: Mc^2 155, 48 h.
For a further data set, the system named is S. aureus (MR) USA300. The settings on record: USA300, 24 h.
In the next data set the test system is S. aureus (MS) NRS72. The settings on record: MS) NRS72, 24 h.
Another data set concerns H. influenzae TD-4. The conditions noted are these: TD-4, 24 h.
Data set [2] deals with the molecule itself. The data set is described as follows: negative-stain TEM + circular dichroism.

Where no end group is shown, it is not given here.

Take `COc1c(N2C[C@@H]3CCCN[C@@H]3C2)c(F)cc2c(=O)c(C(=O)O)cn(C3CC3)c12` [moxifloxacin]: the “Combinatorial effect with MAD1 (FIC)” value in the data set with Mtb was “synergizes”.
As to KRWHWWRRHWVVW-NH2 [MAD1], the MIC was 5 µM in data set [1]; 5(5) µM against M. smegmatis Mc^2 155; >80 (20) µM with S. aureus (MR) USA300; >80 (20) µM against S. aureus (MS) NRS72; 80 (20) µM in the data set with H. influenzae TD-4.
Turning to KRWHWWRRHWVVW-NH2 [myco-membrane associated disruption 1 (MAD1) peptide], in data set [2], the binding result is “binds”.

Source of the values: PMC8131206 (Nature biomedical engineering, 2021).
